Test results as given in patent US9464071B2 (priority 2010, dated 2016).
Several values for one entry are separate records, joined by “and”; a condition that tells them apart may be missing. Equal values may be shown once. Where a name gives a salt, the structure may show the parent alone.

| melting point | Compound |
| --- | --- |
| 203.4 °C and 203.41 °C | COc1cc(OC)cc(N(CC2CC2)c2ccc3ncc(-c4cnn(CC(=O)N5CCC(O)C5)c4)nc3c2)c1 (centres unmarked) |
| 207.88 °C | COc1cc(OC)cc(N(CC2CC2)c2ccc3ncc(-c4cnn(S(C)(=O)=O)c4)nc3c2)c1 |
| 190 °C | COc1ccc(N(CC2CC2)c2ccc3ncc(-c4cnn(C)c4)nc3c2)cc1OC |
| 162.91 °C | COc1cc(OC)cc(N(CC2CC2)c2ccc3ncc(-c4cnn(CC(=O)NCCN5CCCC5)c4)nc3c2)c1 |
| 149.27 °C | COc1cc(OC)cc(N(CC2CC2)c2ccc3ncc(-c4cnn(C(C)(C)C(=O)NCCO)c4)nc3c2)c1 |
| 127.97 °C | COc1cc(OC)cc(N(CC2CC2)c2ccc3ncc(-c4cnn(C(C)(C)C(=O)N5CCNCC5)c4)nc3c2)c1 |
| 140.28 °C | COc1cc(OC)cc(N(Cc2ccc(Cl)s2)c2ccc3ncc(-c4cnn(C)c4)nc3c2)c1 |
| 160.27 °C | COc1cc(OC)cc(N(CC2CC2)c2ccc3ncc(-c4cnn(CCNS(=O)(=O)N(C)C)c4)nc3c2)c1 |
| 131.93 °C | CNCCN(c1cc(OC)cc(OC)c1)c1ccc2ncc(-c3cnn(CCO)c3)nc2c1 |
| 201.43 °C | COc1cc(OC)cc(N(CC(=O)NCCO)c2ccc3ncc(-c4cnn(C)c4)nc3c2)c1 |
| 114.12 °C | COc1cc(OC)cc(N(Cc2ccc(Cl)cc2)c2ccc3ncc(-c4cnn(C)c4)nc3c2)c1 |
| 133.89 °C | COc1cc(OC)cc(N(Cc2ccccc2)c2ccc3ncc(-c4cnn(C)c4)nc3c2)c1 |
| 107 °C | COc1cc(OC)cc(N(c2ccc3ncc(-c4cnn(C)c4)nc3c2)[C@H]2CC[C@H](NC(C)C)CC2)c1 |
| 157 °C | COc1cc(OC)cc(N(CC2COCC(C)(C)N2)c2ccc3ncc(-c4cnn(C)c4)nc3c2)c1 (centres unmarked) |
| 241 °C | COc1cc(OC)cc(N(Cc2cc3ncccc3n2C)c2ccc3ncc(-c4cnn(C)c4)nc3c2)c1 |
| 66 °C | COc1cc(OC)cc(N(CCNC(C)C)c2ccc3ncc(-c4cnn(C5CCN(C(=O)OC(C)(C)C)CC5)c4)nc3c2)c1 |
| 146 °C | [2H]C([2H])([2H])Oc1cc(OC([2H])([2H])[2H])cc(N(CC#Cc2ccncc2)c2ccc3ncc(-c4cnn(C(C)C)c4)nc3c2)c1 |
| 149 °C | COc1cc(OC)cc(N(CC2CNCCO2)c2ccc3ncc(-c4cnn(C)c4)nc3c2)c1 (centres unmarked) |
| 123 °C | COc1cc(OC)cc(N(CCNCC(O)C(F)(F)F)c2ccc3ncc(-c4cnn(C)c4)nc3c2)c1 (centres unmarked) |
| 203 °C | COc1cc(OC)cc(N(CC#Cc2cccc(N)n2)c2ccc3ncc(-c4cnn(C)c4)nc3c2)c1 |
| 186 °C | COc1cc(O)cc(N(CCN)c2ccc3ncc(-c4cnn(C)c4)nc3c2)c1 |
| 247 °C | COc1cccc(N(CCNC(C)C)c2ccc3ncc(-c4cnn(C)c4)nc3c2)c1 |

| melting point | Compound |
| --- | --- |
| 143 °C | COc1cc(OC)cc(N(CCF)c2ccc3ncc(-c4cnn(C)c4)nc3c2)c1 |
| 130 °C | COc1ccnc(C#CCN(c2ccc3ncc(-c4cnn(C)c4)nc3c2)c2c(Cl)c(OC)cc(OC)c2Cl)n1 |
| 127 °C | COc1cc(OC)cc(N(Cc2nc(OC)cc(OC)n2)c2ccc3ncc(-c4cnn(C)c4)nc3c2)c1 |
| 156 °C | COC(=O)c1cccnc1C#CCN(c1cc(OC)cc(OC)c1)c1ccc2ncc(-c3cnn(C)c3)nc2c1 |
| 187 °C | COc1ccnc(C#CCN(c2ccc3ncc(-c4cnn(C)c4)nc3c2)c2c(F)c(OC)cc(OC)c2F)n1 |
| 178 °C | COC(=O)c1ccnc(C#CCN(c2cc(OC)cc(OC)c2)c2ccc3ncc(-c4cnn(C)c4)nc3c2)n1 |
| 148 °C | COc1cc(OC)cc(N(CC2CN(Cc3ccccc3)CCN2Cc2ccccc2)c2ccc3ncc(-c4cnn(C)c4)nc3c2)c1 (centres unmarked) |
| 70 °C | COc1cc(OC)cc(N(CCN(Cc2ccccc2N)C(C)C)c2ccc3ncc(-c4cnn(C)c4)nc3c2)c1 |
| > 260 °C | COc1cc(OC)cc(N(CCP(=O)(O)O)c2ccc3ncc(-c4cnn(C)c4)nc3c2)c1 (as salt: HBr) |
| 140 °C | COc1cc(OC)cc(N(CCCN2CCC[C@@H]2CC#N)c2ccc3ncc(-c4cnn(C)c4)nc3c2)c1 (as salt: HCl) |
| 135 °C | COc1cc(OC)cc(N(CCCN2CCC[C@H]2CC#N)c2ccc3ncc(-c4cnn(C)c4)nc3c2)c1 (as salt: HCl) |
| 166 °C | COc1cc(OC)cc(N(CCNC(C)C)c2ccc3ncc(-c4cnn(CC5CCOCC5)c4)nc3c2)c1 (as salt: HCl) |
| 215.29 °C | COc1cc(OC)cc(N(CCCN2CCC(F)(F)C2)c2ccc3ncc(-c4cn[nH]c4)nc3c2)c1 (as salt: HCl) |
| 160 °C | COc1cc(OC)cc(N(CCNC(C)C)c2ccc3ncc(-c4cnn(C5CCOC5)c4)nc3c2)c1 (centres unmarked) (as salt: HCl) |
| 203 °C | COc1cc(OC)cc(N(Cc2cc[nH]n2)c2ccc3ncc(-c4cnn(C)c4)nc3c2)c1 (as salt: HCl) |
| 157 °C | COc1cc(OC)cc(N(CCCn2cc(C)nc2C)c2ccc3ncc(-c4cnn(C)c4)nc3c2)c1 (as salt: HCl) |
| 151 °C | COc1cc(OC)cc(N(CCN2CCC(CN)CC2)c2ccc3ncc(-c4cnn(C)c4)nc3c2)c1 (as salt: HCl) |
| 197 °C | CCn1cc(-c2cnc3ccc(N(CCCN4CCCC4=O)c4cc(OC)cc(OC)c4)cc3n2)cn1 (as salt: HCl) |
| 188 °C | COc1cc(OC)cc(N(Cc2nc(C)c[nH]2)c2ccc3ncc(-c4cnn(C)c4)nc3c2)c1 (as salt: HCl) |
| 224 °C | CNCC(O)CN(c1cc(OC)cc(OC)c1)c1ccc2ncc(-c3cnn(C)c3)nc2c1 (centres unmarked) (as salt: HCl) |
| 130 °C | COc1cc(OC)cc(N(CCn2cccc2)c2ccc3ncc(-c4cnn(C)c4)nc3c2)c1 (as salt: HCl) |
| 80 °C | COc1cc(OC)cc(N(CCN2C[C@H](C)C[C@@H](C)C2)c2ccc3ncc(-c4cnn(C)c4)nc3c2)c1 (as salt: HCl) [Compound 40] |

| melting point | Compound |
| --- | --- |
| 183.2 °C | COc1cc(OCCO)cc(N(CC2CC2)c2ccc3ncc(-c4cnn(CCO)c4)nc3c2)c1 (as salt: HCl) [Compound 131, 2-[4-(7-{(Cyclopropylmethyl)[3-(2-hydroxyethoxy)-5-methoxyphenyl]amino}quinoxalin-2-yl)-1H-pyrazol-1-yl]ethanol] |
| 184 °C | CNC(=O)Cn1cc(-c2cnc3ccc(N(CCNC(C)C)c4cc(OC)cc(OC)c4)cc3n2)cn1 (as salt: HCl) [Compound 134, 2-(4-{7-[(3,5-Dimethoxyphenyl){2-[(1-methylethyl)amino]ethyl}amino]quinoxalin-2-yl}-1H-pyrazol-1-yl)-N-methylacetamide] |
| 194 °C | CCn1cc(-c2cnc3ccc(N(CCNC(C)C)c4cc(OC)cc(OC)c4)cc3n2)cn1 (as salt: HCl) [Compound 135, N-(3,5-Dimethoxyphenyl)-N-[3-(1-ethyl-1H-pyrazol-4-yl)quinoxalin-6-yl]-N′-(1-methylethyl)ethane-1,2-diamine] |
| > 260 °C | COc1cc(OC)cc(N(CCN2C[C@@H]3C[C@H]2CN3)c2ccc3ncc(-c4cnn(C)c4)nc3c2)c1 (as salt: HCl) [Compound 621] |
| 133 °C | COc1cc(OC)cc(N(CCNC(C)C)c2ccc3ncc(-c4c(C)nn(C)c4C)nc3c2)c1 (as salt: HCl) [Compound 623] |
| 96 °C | COc1cc(OC)cc(N(CCNC(C)C)c2ccc3ncc(-c4cnn(CCCN5CCN(CCO)CC5)c4)nc3c2)c1 (as salt: HCl) [Compound 644] |
| 110 °C | COCC(O)CN(c1cc(OC)cc(OC)c1)c1ccc2ncc(-c3cnn(C(C)C)c3)nc2c1 (centres unmarked) (as salt: hydrochloric acid salt) |
| 95 °C | COCC(O)CN(c1cc(OC)cc(OC)c1)c1ccc2ncc(-c3cnn(C(C)C)c3)nc2c1 (single isomer, unassigned) (as salt: HCl) |
| 187.39 °C and 188 °C | COc1cc(OC)cc(N(C[C@@H](O)CO)c2ccc3ncc(-c4cnn(C)c4)nc3c2)c1 (single isomer, unassigned) [Compound 97] |
| 186.98 °C | COc1cc(OC)cc(N(C[C@H](O)CO)c2ccc3ncc(-c4cnn(C)c4)nc3c2)c1 (single isomer, unassigned) [Compound 98] |
| 149.13 °C | COc1cc(OC)cc(N(CC(O)C(F)(F)F)c2ccc3ncc(-c4cnn(C)c4)nc3c2)c1 (single isomer, unassigned) [Compound 148, (2R*)-3-{(3,5-Dimethoxyphenyl)[3-(1-methyl-1H-pyrazol-4-yl)quinoxalin-6-yl]amino}-1,1,1-trifluoropropan-2-ol] |
| 146.61 °C | COc1cc(OC)cc(N(CC(O)C(F)(F)F)c2ccc3ncc(-c4cnn(C)c4)nc3c2)c1 (single isomer, unassigned) [Compound 149, (2S*)-3-{(3,5-Dimethoxyphenyl)[3-(1-methyl-1H-pyrazol-4-yl)quinoxalin-6-yl]amino}-1,1,1-trifluoropropan-2-ol] |
| 154 °C | COc1cc(OC)cc(N(C[C@H](O)C(F)(F)F)c2ccc3ncc(-c4cnn(CCCN)c4)nc3c2)c1 (stereo in doubt) |
| 169.26 °C and 169 °C | COc1cc(OC)cc(N(CCO)c2ccc3ncc(-c4cn[nH]c4)nc3c2)c1 [Compound 2] |
| 204.45 °C and 204.5 °C | CNC(=O)Cn1cc(-c2cnc3ccc(N(CCO)c4cc(OC)cc(OC)c4)cc3n2)cn1 [Compound 21] |
| 109 °C and 108.61 °C | CC(C)Oc1cccc(N(CC2CC2)c2ccc3ncc(-c4cnn(C)c4)nc3c2)c1 [Compound 22] |
| 134 °C | COc1cc(OC)cc(N(Cc2cc(C)no2)c2ccc3ncc(-c4cnn(CCO)c4)nc3c2)c1 [Compound 23] |
| 80 °C | COc1cc(OCCO)cc(N(CC2CC2)c2ccc3ncc(-c4cnn(C)c4)nc3c2)c1 [Compound 24] |
| 80 °C | COc1cc(OCCN)cc(N(CC2CC2)c2ccc3ncc(-c4cnn(C)c4)nc3c2)c1 [Compound 32] |
| 174 °C and 173.67 °C | CNC(=O)Cn1cc(-c2cnc3ccc(N(CCN)c4cc(OC)cc(OC)c4)cc3n2)cn1 [Compound 34] |
| 154.05 °C and 154 °C | COc1cc(OC)cc(N(CC2CC2)c2ccc3ncc(-c4cnn(CC(O)CO)c4)nc3c2)c1 (centres unmarked) [Compound 37] |
